Measurements from the NIST ThermoML archive (doi:10.1016/j.jct.2008.10.010).

Assay: molar heat capacity at constant pressure; xn = mol fraction of the nth substance listed
Conditions: 101.3 kPa, Liquid, Small sample (50 mg) DSC

CCC(C)(C)O [2-methylbutan-2-ol] + CCCCCCC
molar heat capacity at constant pressure [J/K/mol]
Conditions	309.15 K	310.16 K	311.14 K	312.15 K	313.16 K	314.14 K	315.15 K	316.16 K	317.14 K	318.15 K
x1 = 0.0061	–	229.11	229.41	229.87	230.16	230.54	231.04	231.41	231.74	232.22
x1 = 0.0249	–	232.84	233.01	233.27	233.44	233.76	234.1	234.24	234.45	234.79
x1 = 0.0494	–	238.76	238.96	239.19	239.44	239.64	239.85	240.04	240.17	240.39
x1 = 0.1	–	246.57	246.82	247.28	247.62	247.94	248.26	248.61	248.85	249.22
x1 = 0.1547	–	251.57	252.06	252.56	253.04	253.52	254.01	254.44	254.85	255.3
x1 = 0.1999	–	254.63	255.2	255.82	256.43	257.01	257.6	258.06	258.58	259.15
x1 = 0.2993	–	259.26	259.96	260.68	261.51	262.2	262.9	263.57	264.25	264.95
x1 = 0.4051	–	261.91	262.71	263.58	264.53	265.3	266.17	266.93	267.74	–
x1 = 0.4986	262.32	263.33	264.23	265.2	266.22	267.11	268.03	268.88	269.71	–
x1 = 0.5981	262.83	263.88	264.84	265.84	266.9	267.83	268.84	269.72	270.72	–
x1 = 0.7015	262.76	263.9	264.89	265.94	267.08	268.09	269.07	270.07	271.01	–
x1 = 0.8023	261.98	263.1	264.11	265.15	266.27	267.27	268.34	269.26	270.34	–
x1 = 0.9139	260.52	261.67	262.65	263.76	264.91	265.99	267.02	268	269.05	–
x1 = 0.9609	259.67	260.83	261.81	262.89	264	265.01	266.09	267.03	268.07	–
